Measured values from paper PMC10226046, “Prodrug Strategies for the Development of β-L-5-((E)-2-Bromovinyl)-1-((2S,4S)-2-(hydroxymethyl)-1,3-(dioxolane-4-yl))uracil (L-BHDU) against Varicella Zoster Virus (VZV)” (Journal of Medicinal Chemistry, 2023).
Read-outs that look alike come from different tables or passages of the source.

Legend:
VZV-ORF57-Luc [1] = settings: for EC50: cell-free VZV-ORF57-Luc, ARPE-19 cells, 72 hpi, bioluminescence imaging
in vitro = settings: human
VZV-ORF57-Luc [2] = assay: microbe, parasite or virus in culture; settings: Human alphaherpesvirus 3, ARPE-19, cell-free VZV-ORF57-Luc, ARPE-19 cells, 72 hpi, bioluminescence imaging
[3] = Neutral red dye uptake cytotoxicity assay in ARPE-19 cells; settings: human
VZV = settings: cited from earlier work
VZV-ORF57-ΔTK = assay: microbe, parasite or virus in culture; format: cell-based, Varicella zoster virus
VZV-ORF57-ΔTKTS = assay: microbe, parasite or virus in culture; format: cell-based, Varicella zoster virus
VZV-ORF57-ΔTS = assay: microbe, parasite or virus in culture; format: cell-based, Varicella zoster virus
VZV-ORF57-Luc [4] = assay: microbe, parasite or virus in culture; format: cell-based, Varicella zoster virus
ARPE-19 cells = assay: Neutral red dye uptake cytotoxicity assay in ARPE-19 cells; settings: 72 h, neutral red assay
[5] = selectivity index = CC50/EC50, ARPE-19 cells
[6] = Human alphaherpesvirus 3, ARPE-19
[7] = cell-associated virus, ARPE-19 cells
[8] = cell-associated VZV-ORF57-ΔTK, ARPE-19 cells, read-out: EC50
[9] = cell-associated VZV-ORF57-ΔTKTS, ARPE-19 cells, read-out: EC50
[10] = cell-associated VZV-ORF57-ΔTS, ARPE-19 cells, read-out: EC50
[11] = cell-associated VZV-ORF57-Luc, ARPE-19 cells, read-out: EC50

Molecule | SI (CC50/EC50) (VZV-ORF57-Luc [1]) | EC50 (VZV-ORF57-Luc [2]) | SI (CC50/EC50) (VZV-ORF57-Luc [1]; [5]) | CC50 at 72 h [3] | also measured
CC(C)OC(=O)C(C)NP(=O)(OC[C@H]1OC[C@@H](n2cc(/C=C/Br)c(=O)[nH]c2=O)O1)Oc1ccccc1 (stereo in doubt) [Isopropyl ((((2S,4S)-4-(5-((E)-2-Bromovinyl)-2,4-dioxo-3,4-dihydropyrimidin-1(2H)-yl)-1,3-dioxolan-2-yl)methoxy)(phenoxy)phosphoryl)-L-alaninate] | >206 | 1690 nM | – | – | CC50 (in vitro): > 100 µM
CC(C)OC(=O)C(Cc1ccccc1)NP(=O)(OC[C@H]1OC[C@@H](n2cc(/C=C/Br)c(=O)[nH]c2=O)O1)Oc1ccccc1 (stereo in doubt) [Isopropyl ((((2S,4S)-4-(5-((E)-2-Bromovinyl)-2,4-dioxo-3,4-dihydropyrimidin-1(2H)-yl)-1,3-dioxolan-2-yl)methoxy)(phenoxy)phosphoryl)-L-phenylalaninate] | 61 | 1530 nM | 61 | – | CC50 at 72 h (in vitro): 93.7 µM
CC(C)(N)C(=O)OC[C@H]1OC[C@@H](n2cc(/C=C/Br)c(=O)[nH]c2=O)O1.Cl [L-BHDU-2-aminoisobutyric acid (24), L-BHDU-5′-O-2-aminoisobutyric Acid Ester Hydrochloride] | >2597 | 38.5 nM | >2597 | > 100 µM | –
CC(C)[C@H](N)C(=O)OC[C@H]1OC[C@@H](n2cc(/C=C/Br)c(=O)[nH]c2=O)O1.Cl [L-BHDU-D-valine (18), L-BHDU-5′-O-D-valyl Ester Hydrochloride] | >709 | 140 nM | >709 | > 100 µM | EC50 (VZV-ORF57-Luc [1]): 141 nM
C[C@@H](N)C(=O)OC[C@H]1OC[C@@H](n2cc(/C=C/Br)c(=O)[nH]c2=O)O1.Cl [L-BHDU-L-alanine (15), L-BHDU-5′-O-L-alanyl Ester Hydrochloride] | >2959 | 33.8 nM | >2959 | > 100 µM | –
Cl.NC(=O)CC[C@H](N)C(=O)OC[C@H]1OC[C@@H](n2cc(/C=C/Br)c(=O)[nH]c2=O)O1 [L-BHDU-L-glutamine (23), L-BHDU-5′-O-L-glutamine Ester Hydrochloride] | >794 | 126 nM | >794 | > 100 µM | –
CC[C@H](C)[C@H](N)C(=O)OC[C@H]1OC[C@@H](n2cc(/C=C/Br)c(=O)[nH]c2=O)O1.Cl [L-BHDU-L-isoleucine (21), L-BHDU-5′-O-L-isoleucine Ester Hydrochloride] | >1520 | 65.8 nM | >1520 | > 100 µM | –
CC(C)C[C@H](N)C(=O)OC[C@H]1OC[C@@H](n2cc(/C=C/Br)c(=O)[nH]c2=O)O1.Cl [L-BHDU-L-leucine (20), L-BHDU-5′-O-L-leucine Ester Hydrochloride] | >2415 | 41.4 nM | >2415 | > 100 µM | –
Cl.NCCCC[C@H](N)C(=O)OC[C@H]1OC[C@@H](n2cc(/C=C/Br)c(=O)[nH]c2=O)O1 [L-BHDU-L-lysine (25), L-BHDU-5′-O-L-lysine Ester Hydrochloride] | – | 40.3 nM | >2481 | > 100 µM | –
Cl.N[C@H](Cc1ccccc1)C(=O)OC[C@H]1OC[C@@H](n2cc(/C=C/Br)c(=O)[nH]c2=O)O1 [L-BHDU-L-phenylalanine (16), L-BHDU-5′-O-L-phenylalanyl Ester Hydrochloride] | >3484 | 28 nM | >3484 | > 100 µM | EC50 (VZV-ORF57-Luc [1]): 28.7 nM; SI (CC50/EC50) (VZV-ORF57-Luc [1]; selectivity index = CC50/EC50, ARPE-19 cells, listed as 16): > 3484
Cl.O=C(OC[C@H]1OC[C@@H](n2cc(/C=C/Br)c(=O)[nH]c2=O)O1)[C@@H]1CCCN1 [L-BHDU-L-proline (22), L-BHDU-5′-O-L-proline Ester Hydrochloride] | >1934 | 51.7 nM | >1934 | > 100 µM | –
Cl.N[C@@H](Cc1c[nH]c2ccccc12)C(=O)OC[C@H]1OC[C@@H](n2cc(/C=C/Br)c(=O)[nH]c2=O)O1 [L-BHDU-L-tryptophan (19), L-BHDU-5′-O-L-tryptophan Ester Hydrochloride] | >1550 | 64.5 nM | >1550 | > 100 µM | –
Cl.N[C@@H](Cc1ccc(O)cc1)C(=O)OC[C@H]1OC[C@@H](n2cc(/C=C/Br)c(=O)[nH]c2=O)O1 [L-BHDU-L-tyrosine (26), L-BHDU-5′-O-L-tyrosine Ester Hydrochloride] | >826 | 121 nM | >826 | > 100 µM | –
Cl.NCC(=O)OC[C@H]1OC[C@@H](n2cc(/C=C/Br)c(=O)[nH]c2=O)O1 [L-BHDU-glycine (14), L-BHDU-5′-O-glycyl Ester Hydrochloride] | >2132 | 46.9 nM | >2132 | > 100 µM | –
CC(C)[C@H](N)C(=O)OCCOCn1cnc2c(=O)[nH]c(N)nc21 [VACV, valacyclovir] | – | – | – | – | effect on VZV spread (VZV; 120 mg/kg/day, SCID-hu mouse): no effect; effect on VZV replication (VZV; SCID-hu mice): did not affect VZV replication
Nc1nc2c(ncn2COCCO)c(=O)[nH]1 [acyclovir (ACV), acyclovir, reference compound] | – | – | – | > 100 µM | –
Nc1ccn(C[C@@H](CO)OCP(=O)(O)O)c(=O)n1 [cidofovir (CDV), cidofovir, reference compound] | – | 482 nM | >208 | > 100 µM | EC50 (VZV-ORF57-ΔTK; [6]): 420 nM; activity against VZV-ORF57-ΔTK (in words) (VZV-ORF57-ΔTK; [7]): effective; EC50 (VZV-ORF57-ΔTKTS; [6]): 1050 nM; activity against VZV-ORF57-ΔTKTS (in words) (VZV-ORF57-ΔTKTS; [7]): effective; EC50 (VZV-ORF57-ΔTS; [6]): 10 nM; EC50 (VZV-ORF57-Luc [4]; [6]): 370 nM
CC(C)(C)OC(=O)N[C@@H](Cc1ccc(O)cc1)C(=O)O [compound 27] | >2481 | – | – | – | –
Bis(POC) Prodrug of L-BHDU-MP [POC-L-BHDU-MP (47)] | >2915 | – | >2915 | – | EC50 (VZV-ORF57-Luc [1]): 34.3 nM; EC50 (VZV-ORF57-Luc [1]; listed as POC-L-BHDU-MP): 34 nM; SI (CC50/EC50) (VZV-ORF57-Luc [1]; selectivity index = CC50/EC50, ARPE-19 cells, listed as POC-L-BHDU-MP): > 2915; EC50 (VZV-ORF57-ΔTK; [8]): > 2000 nM; EC50 (VZV-ORF57-ΔTKTS; [9]): > 2000 nM; CC50 (ARPE-19 cells): > 100 µM; EC50 (VZV-ORF57-ΔTS; [10]): 8.4 nM; EC50 (VZV-ORF57-Luc [4]; [11]): 40 nM
L-BHDU-5′-[(2-hexadecyloxyethyl)phosphate] [HDP-L-BHDU-MP (39)] | 35 | – | 35 | – | EC50 (VZV-ORF57-Luc [1]): 526 nM; EC50 (VZV-ORF57-Luc [1]; listed as 39): 530 nM; CC50 (ARPE-19 cells): 18.5 µM
L-BHDU-5′-[(2-octadecyloxyethyl)phosphate] [ODE-L-BHDU-MP (38)] | 339 | – | 339 | – | EC50 (VZV-ORF57-Luc [1]): 100 nM; EC50 (VZV-ORF57-ΔTK; [8]): > 2000 nM; EC50 (VZV-ORF57-ΔTKTS; [9]): > 2000 nM; CC50 (ARPE-19 cells): 33.9 µM; EC50 (VZV-ORF57-ΔTS; [10]): 0.8 nM; fold more potent compared to ACV (VZV-ORF57-Luc [4]; cell-associated VZV-ORF57-Luc): 9 fold; EC50 (VZV-ORF57-Luc [4]; [11]): 820 nM
